{"source": "patent US20250041245A1", "about": "“ENDOXIFEN FOR TREATMENT OF CANCERS” (Atossa Therapeutics, Inc., priority 2021, published 2025)", "assay_type_in_all_cases": "cell-based, human", "key": {"[1]": {"tested_on": "patient-derived tumor organoids (PDTOs), breast cancer", "assay": "Endoxifen screen in patient-derived tumor organoids (PARIS Test): breast cancer", "set-up": "key to Personalization Category: Personalization categories range from High, Good, Moderate, Low, to None; Personalization categories range from High, Good, Moderate, Low, to None; Personalization categories range from High, Good, Moderate, Low, to None; Personalization categories range from High, Good, Moderate, Low, to None; Personalization categories range from High, Good, Moderate, Low, to None; key to Sensitivity Category: Sensitivity categories range from High, Good, Moderate, Low, to None; Sensitivity categories range from High, Good, Moderate, Low, to None; Sensitivity categories range from High, Good, Moderate, Low, to None; Sensitivity categories range from High, Good, Moderate, Low, to None; Sensitivity categories range from High, Good, Moderate, Low, to None", "conditions": "each line one patient sample", "experimental": "(§1) This example describes screening endoxifen in patient-derived tumor organoids. Endoxifen was tested as a single agent on tumor organoids derived from patients diagnosed with various cancer types using a personalized cancer treatment screening assay (PARIS© Test, SEngine Precision Medicine). The screen utilized patient-derived tumor organoids (PDTOs) along with high-throughput drug screening and machine learning-guided data analysis to quantify the efficacy of endoxifen against samples derived from individual patients diagnosed with various cancer types. PDTOs are self-organizing, three-dimensional organoid structures that recapitulate structural, functional, and genomic aspects of in vivo organs. The PDTOs were grown in culture from patient tumor biopsy samples.\n(§2) Fresh patient biopsy samples received following surgery were cleaned and purified. Immune cells (e.g., lymphocytes, blood cells), cancer-associated fibroblasts, and other non-tumor cells were removed to establish pure PDTOs for endoxifen testing. The tumor organoids were grown and expanded by supplying organ- and patient-specific growth factors and nutrients. The PDTOs were treated with increasing concentrations of endoxifen ranging from about 30 nM to about 10 μM, and the drug response was measured using a luminescence readout. A lower luminescence was indicative of a stronger drug response.\n(§3) The results were analyzed using a “SEngine Precision Medicine” (SPM) scoring system to assess the sensitivity and personalization of each tumor organoid to endoxifen. The SPM score correlates with clinical outcomes, such that a higher SPM score for a specific PDTO-drug combination predicts a more favorable clinical outcome following treatment of the corresponding patient with the tested drug.\n(§4) This example describes testing endoxifen efficacy against 17 distinct cancer types in patient-derived tumor organoids (PDTOs). Screening of PDTOs was performed as described in EXAMPLE 1. For each PDTO sample, the drug response was measured using a luminescent readout over a range of endoxifen concentrations. The drug response was evaluated based on the area under the fitted dose response curve (AUC) and the SPM scoring system. AUC values were normalized for each PDTO. Briefly, data points at each drug concentration were first normalized to a negative control, then a dose response drug curve was approximated using a four-parameter logistic model fitted to the normalized data points. The area under the curve was calculated from the normalized curve. Normalization allowed for comparison of AUC values between patient samples. The SPM scores were based on machine learning models that incorporate values for how well the drug kill patient cells (sensitivity metric), the relative drug responses of a patient to all other patients in a sample database (personalization metric), and knowledge of clinical outcomes for patients that had been evaluated with the personalized cancer screening assay (PARIS® Test, SEngine Precision Medicine).\nThe SPM scoring system evaluated whether a PDTO was unresponsive or responsive to endoxifen and the degree of drug response for PDTOs that were responsive to endoxifen. […] The sensitivity category was determined from the sensitivity metric and is a measure of overall cell death of a patient's cells in response to endoxifen at six concentrations. […]"}, "[2]": {"tested_on": "patient-derived tumor organoids (PDTOs), cholangiocarcinoma", "assay": "Endoxifen screen in PDTOs: cholangiocarcinoma", "set-up": "key to Personalization Category: Personalization categories range from High, Good, Moderate, Low, to None; Personalization categories range from High, Good, Moderate, Low, to None; Personalization categories range from High, Good, Moderate, Low, to None; Personalization categories range from High, Good, Moderate, Low, to None; Personalization categories range from High, Good, Moderate, Low, to None; key to Sensitivity Category: Sensitivity categories range from High, Good, Moderate, Low, to None; Sensitivity categories range from High, Good, Moderate, Low, to None; Sensitivity categories range from High, Good, Moderate, Low, to None; Sensitivity categories range from High, Good, Moderate, Low, to None; Sensitivity categories range from High, Good, Moderate, Low, to None; AUC: unit not given beside the values", "conditions": "each line one patient sample; for IC50: four-parameter logistic fit", "experimental": "as §1, §2, §3, §4\n(§5) The SPM scoring system evaluated whether a PDTO was unresponsive or responsive to endoxifen and the degree of drug response for PDTOs that were responsive to endoxifen. The SPM scoring system generated metrics an SPM score, predictive of clinical outcome, overall drug response (response category), drug sensitivity (sensitivity category), and drug personalization (personalization category). SPM scores ranged from 1-15, corresponding to the following drug response categories: no response (SPM 1-8), low response (SPM 9), moderate response (SPM 10-11), good response (SPM 12-13), and exceptional response (SPM 14-15). […] Moderate to good drug responses (SPM 10-13) may indicate that a drug has clinical relevance, possibly in combination with other drugs. The sensitivity category was determined from the sensitivity metric and is a measure of overall cell death of a patient's cells in response to endoxifen at six concentrations. […]"}, "[3]": {"tested_on": "patient-derived tumor organoids (PDTOs), colorectal cancer", "assay": "Endoxifen screen in PDTOs: colorectal cancer", "set-up": "key to Personalization Category: Personalization categories range from High, Good, Moderate, Low, to None; Personalization categories range from High, Good, Moderate, Low, to None; Personalization categories range from High, Good, Moderate, Low, to None; Personalization categories range from High, Good, Moderate, Low, to None; Personalization categories range from High, Good, Moderate, Low, to None; key to Sensitivity Category: Sensitivity categories range from High, Good, Moderate, Low, to None; Sensitivity categories range from High, Good, Moderate, Low, to None; Sensitivity categories range from High, Good, Moderate, Low, to None; Sensitivity categories range from High, Good, Moderate, Low, to None; Sensitivity categories range from High, Good, Moderate, Low, to None; AUC: unit not given beside the values", "conditions": "each line one patient sample", "experimental": "as §1, §2, §3, §4, §5"}, "[4]": {"conditions": "normalized area under fitted dose response curve"}}, "note": "Where “and” joins values, the source holds several entries; their conditions need not be identical. Equal entries are not always repeated. Entries after “also recorded” stand apart in the source; their conditions may differ.", "data": [{"smiles": "CC/C(=C(\\c1ccc(O)cc1)c1ccc(OCCNC)cc1)c1ccccc1", "note": "[Endoxifen, 4-hydroxy-N-desmethyltamoxifen]", "values": [{"measurement": "Response Category", "setting": "[1]", "value": "Moderate (moderate response (SPM 10-11)); also recorded: None (no response (SPM 1-8)); also recorded: Low (low response (SPM 9)); also recorded: Good (good response (SPM 12-13)); also recorded: Exceptional (exceptional response (SPM 14-15))"}, {"measurement": "AUC", "setting": "[1]; [4]", "value": "0.8248 and 0.9311 and 0.8639 and 0.6798 and 0.8079 and 0.9835 and 0.8609 and 0.8997 and 0.8847 and 0.9811 and 0.9320 and 0.9911 and 0.9378 and 0.4774 and 0.5912"}, {"measurement": "Sensitivity Category", "setting": "[1]; overall cell death at six concentrations", "value": "Low and None and Moderate and Good"}, {"measurement": "Personalization Category", "setting": "[1]; response relative to other PDTOs", "value": "Moderate and None and Low and High and Good"}, {"measurement": "SPM Score", "setting": "[1]; score range 1-15", "value": "10 and 1 (6×) and 9 (3×) and 13 (2×) and 11 and 4 and 14"}, {"measurement": "IC50", "setting": "[2]; Homo sapiens", "value": 8.7, "unit": "µM"}, {"measurement": "Personalization Category", "setting": "[2]", "value": "None and Low"}, {"measurement": "Response Category", "setting": "[2]", "value": "None (no response (SPM 1-8)); also recorded: Low (low response (SPM 9))"}, {"measurement": "Sensitivity Category", "setting": "[2]", "value": "None and Low"}, {"measurement": "IC50", "setting": "[2]", "value": 9.19, "unit": "µM"}, {"measurement": "AUC", "setting": "[2]; [4]", "value": "0.9497 and 0.9011 and 0.9669"}, {"measurement": "SPM Score", "setting": "[2]; score range 1-15", "value": "1 and 9 and 3"}, {"measurement": "Personalization Category", "setting": "[3]", "value": "None and Low and Good and Moderate"}, {"measurement": "Response Category", "setting": "[3]", "value": "None (no response (SPM 1-8)); also recorded: Low (low response (SPM 9)); also recorded: Moderate (moderate response (SPM 10-11))"}, {"measurement": "Sensitivity Category", "setting": "[3]", "value": "None and Low"}, {"measurement": "IC50", "setting": "[3]; four-parameter logistic fit", "value": "7.16 µM and 9.23 µM and 7.23 µM and 5.61 µM and 10 µM and 5.65 µM and 4.72 µM and 3.62 µM and 8.86 µM and 5.67 µM and 6.74 µM and 9.61 µM and 9.09 µM"}, {"measurement": "AUC", "setting": "[3]; [4]", "value": "0.9517 and 0.9919 and 1.0338 and 0.9902 and 1.0377 and 0.9305 and 0.8841 and 0.8215 and 0.9346 and 0.8357 and 0.8866 and 0.9755 and 0.9804 and 0.9752 and 1.0467"}, {"measurement": "SPM Score", "setting": "[3]; score range 1-15", "value": "1 (9×) and 3 and 5 and 9 (2×) and 11 and 10"}]}]}
